What all share (assay): NCI anticancer screen, dose series, 48 h
Assay [1] has as its system SNB-78 CNS.
The test system of assay [2] is SR leukemia.
Assay [3] concerns HOP-92 NSCLC.
In assay [4] the test system is 786-0 renal.
Assay [5] relates to HCT-116 colon.
The test system of assay [6] is DLD-1 colon.
Assay [7] relates to DMS 114 small cell lung.
Assay [8] concerns SK-MEL-2 melanoma.
Assay [9] deals with COLO 205 colon.
Assay [10] concerns OVCAR-4 ovarian.
Assay [11] deals with SK-OV-3 ovarian.

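Following 48 hours of exposure in 96-well plates, responses at five concentrations were used to interpolate endpoints linearly. Here, GI50 denotes the concentration required for 50% inhibition of growth. TGI marks complete inhibition of growth.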

Take `CC1=C(Cl)C=CP(=O)(OC(C)C)C1` (configuration not stated): the TGI in [1], in assay [2], in [3], in [4], in assay [5] and in [6] was above 100 µM in each case. For the same compound, the TGI in [7], in assay [8], in assay [9] and in [10] was above 100 µM in each case.
For `COc1ccc2c(c1)[n+]([O-])c(-c1ccc(C)cc1)c(N)[n+]2[O-]`, the TGI in assay [1], in assay [2], in assay [3], in [4], in assay [5] and in assay [6] was above 100 µM in each case. Besides, the TGI was above 100 µM in [11]; 61.4 µM in assay [7]; above 100 µM in assay [8]; 36.4 µM in assay [9]; above 100 µM in [10].
Turning to `COc1ccc(-c2cc(-c3cc(Cl)cc(Br)c3O)[nH]c(=O)n2)cc1`, the TGI was 64.2 µM in assay [1]; 51.8 µM in assay [2]; 34.7 µM in [3]; 32 µM in assay [4]; 24.5 µM in assay [5]; 38.4 µM in assay [6]. Further, the TGI amounted to 38.8 µM in assay [11], 38 µM in assay [7], 29 µM in assay [9] and 26.5 µM in [10].
For `CC12CO[C@@](C)(CC(S(=O)(=O)c3ccccc3)C1)O2` (some centres not stated), the TGI in assay [1], in assay [2], in assay [3], in [4], in assay [5] and in [6] was above 100 µM throughout. Besides, the TGI in assay [11], in assay [7], in assay [8], in assay [9] and in assay [10] was above 100 µM throughout.
On to `O=S1(=O)CCCS(=O)(=O)C(c2ccccc2)=C1c1ccccc1`, for which the TGI in assay [1] is above 100 µM; in assay [2], above 100 µM; in assay [3], 85.3 µM; in assay [4], above 100 µM; in assay [5] it was above 100 µM; in [6], above 100 µM. Moreover, the TGI in assay [11], in [7], in assay [8] and in assay [10] was above 100 µM each time.
As to `CCN(CC)C(=O)N1CCN(C=S)CC1`, the TGI in assay [1], in assay [2], in [4], in assay [5], in assay [6] and in assay [11] was above 100 µM throughout. In addition, the TGI in [7], in assay [8], in assay [9] and in [10] was above 100 µM in each case.
Take `Cc1ccc(-c2cc(=O)c3cc(C)c(C)c(C(=O)O)c3o2)cc1N`: the TGI in assay [1], in assay [4], in assay [5], in assay [6], in assay [11] and in [7] was above 100 µM each time. Moreover, the TGI in assay [8], in assay [9] and in [10] was above 100 µM each time.
`O=C(CC1(O)C(=O)Nc2ccccc21)c1ccc(O)cc1` (configuration not stated): the TGI in assay [1], in assay [2], in assay [3], in assay [4], in assay [5] and in assay [6] was above 100 µM each time. The TGI in assay [11], in assay [7], in assay [8], in assay [9] and in assay [10] was above 100 µM in each case.
As to `Clc1ccc2nc(-c3ccccc3)nc(Cl)c2c1`, the TGI in assay [1] is above 100 µM; in assay [2], above 100 µM; in assay [3] it was 50.3 µM; in [4] it was above 100 µM; in assay [5], above 100 µM; in [6], above 100 µM. In addition, the TGI was 36.8 µM in [11], above 100 µM in assay [7], above 100 µM in assay [8] and above 100 µM in assay [9].
With `O=c1c(NO)c([N+](=O)[O-])cnn1-c1ccccc1`, the TGI in [1] was 39.2 µM; in [3], 13.9 µM; in [4], 12.7 µM; in assay [5], 6.25 µM; in assay [6], 10.2 µM; in assay [11], 13.3 µM. Moreover, the TGI in assay [7] was determined as 35.3 µM; in assay [8], 31.4 µM; in assay [9], 9.85 µM; in [10] it was 6.95 µM.
`O=S1(=O)CS(=O)(=O)OCCO1`: the TGI was determined as 140 µM in [1]; 112 µM in [3]; 159 µM in [4]; 85.3 µM in assay [5]; 164 µM in assay [6]; 70.5 µM in [11]. For the same compound, the TGI is 108 µM in assay [7], 119 µM in assay [8], 157 µM in assay [9] and 130 µM in assay [10]. The GI50 in assay [2] is 1.15 µM; in assay [3], above 49.7 µM; in [4] it was 35.6 µM; in assay [5], above 74.6 µM.
For the compound `C/C(=N\N=C(\[Se])N(C)C)c1ccccn1`, the TGI in assay [1] came out at 15.9 µM; in [2] it was 23.7 µM; in [3] it was 13.1 µM; in [4] it was 18.3 µM; in assay [5], 14.2 µM; in assay [6], 16.9 µM. The TGI is 10.2 µM in assay [11]; below 0.01 µM in assay [7]; 12.9 µM in assay [8]; 2.05 µM in [9]; 13.9 µM in assay [10].
In the case of `COc1cccc2c1C(=O)c1c(O)c3c(c(O)c1C2=O)C[C@@](O)(C(=O)CO)CC3OC1CC(O)C(O)C(C)O1` (some centres not stated), the TGI was 9.41 µM in assay [1]; 2.26 µM in [3]; 12.5 µM in assay [4]; 0.572 µM in [5]; 10.8 µM in [6]; 7.29 µM in [11]. The TGI in assay [7] was found to be 0.958 µM; in assay [8], 1.58 µM; in [10] it was 6.85 µM.
Take `CC(CNCCCNCCNCCCNCO)[N+](=O)[O-]` (configuration not stated): the TGI came to 48.3 µM in [1]; 28.4 µM in assay [2]; 8.57 µM in assay [3]; 29.3 µM in assay [4]; 22.7 µM in assay [5]; 14.4 µM in assay [6]. Further, the TGI was above 100 µM in [11]; 30.6 µM in assay [7]; 29.4 µM in assay [8]; 19.3 µM in assay [9]; 27.9 µM in [10].
In the case of `CCCCCCCCCCCCCCCC(=O)OCC1OC(OC)C2NP(=O)(N(CCCl)CCCl)OC1C2O` (configuration not stated), the TGI in assay [1] turned out to be 19.2 µM; in assay [2] it was 1.78 µM; in [3], 5.51 µM; in assay [4] it was 3.85 µM; in assay [5], 11.5 µM; in assay [6], 14.5 µM. In addition, the TGI was 56.1 µM in [11]; 9.31 µM in [7]; 24.3 µM in assay [8]; 13.5 µM in [9]; 38 µM in [10].
Regarding `O=[N+]([O-])c1ccc(/C=C/c2csnn2)cc1`, the TGI in assay [1], in assay [3], in [4], in assay [5], in assay [6] and in [11] was above 100 µM in each case. The TGI in [7], in [8] and in [10] was above 100 µM each time.
In the case of `O=[N+]([O-])c1cc(Cl)ccc1OCc1ccccc1`, the TGI is above 100 µM in [1]; above 100 µM in assay [2]; 92.5 µM in [3]; above 100 µM in assay [4]; above 100 µM in assay [5]; above 100 µM in assay [6]. Further, the TGI in assay [11], in [7], in [8], in [9] and in assay [10] was above 100 µM throughout.
`COc1cc2c(cc1OC)NC(=O)NC(Cc1ccc3c(c1)OCO3)CC2` (configuration not stated): the TGI in assay [1], in assay [3], in [4], in assay [6], in [11] and in [7] was above 100 µM each time. The TGI in assay [8], in [9] and in assay [10] was above 100 µM in each case.
For the compound `COC(=O)C(CBr)CBr`, the TGI in [1] was 3.59 µM; in assay [3], 3.63 µM; in assay [4], 8.91 µM; in assay [5], 11.5 µM; in assay [6], 8.29 µM; in [11], 33.8 µM. For the same compound, the TGI in [7] worked out at 4.23 µM; in assay [8], 30.5 µM; in [9], 3 µM; in assay [10], 8.58 µM.

These data come from PubChem BioAssay (NCI).
